Experimental data taken from patent publication US11304988B2, “Inhibiting tumor cell migration by inhibition of kinesin light chain 1, variant 1 (KLC1C)” (Northwestern University, priority 2018, dated 2022).
Entries after “also recorded” stand apart in the source; their conditions may differ.

What was measured:
A375M melanoma cells = experiment: A375M transendothelial migration assay; format: cell-based, human; details: for lowest concentration with significant effects on tumor cell transmigration / melanoma / tumor cell transmigration with free radical scavengers and anti-oxidants (in words): A375M; for melanoma / tumor cell transmigration with free radical scavengers and anti-oxidants (in words): indicated concentrations, vs. Scr; for inhibition of melanoma cell TEM compared with Tat-KLC1c peptide: at 10 mM, vs optimal concentration of Tat-KLC1c peptide
Method: (§1) FIG. 16. […] Data are mean±SD of 6 replicates. *p<0.005 vs. Scr.
FIG. 19. […] A375M transendothelial migration assays were carried out in the presence of Tat-peptides or the indicated concentrations of Trolox or N-acetylcysteine. Data are mean±SD of ≥3 replicates for each condition. *p<0.01 for all inhibitors vs. Scr.

[1] = tested on: Human umbilical vein endothelial cells; experiment: in vitro transendothelial migration (TEM) of human monocytes across endothelial cell monolayers; format: cell-based; details: endothelial cells incubated 30 minutes with 0.01 μM or 0.1 μM peptide, washed, one hour with human monocytes; compared to untreated
Method: FIG. 3. Blocking Kinesin Light Chain 1c function via TAT-KLC1c peptide inhibits transmigration. Human umbilical vein endothelial cells. Endothelial cells were incubated for 30 minutes with either 0 μM (untreated), 0.01 μM, or 0.1 μM TAT-KLC1c peptide (or scrambled TAT-peptide) at 37° C., then washed prior to a one hour incubation with human monocytes. The cells were then washed, fixed, and the percentage of cells transmigrated (% TEM) was quantified. […] Data shown are mean±SEM for 3 experiments. * p<0.01 compared to untreated.
as §1
(§2) Tumor cells that transmigrate using the LBRC do so without destroying the endothelial cell monolayer. […] The Tat-KLC1c peptide has no effect on the ability of tumor cells to move per se (FIG. 8), nor on tumor cell viability or growth (FIG. 9).

B16F10 melanoma cells [2] = experiment: melanoma cell extravasation in lung in vivo after tail vein injection; design: species or system mouse; details: for visualized tumor cells that had transmigrated: C57Bl/6 mice, peptide 1 hour prior to CFSE-labeled B16F10 via tail vein, sacrificed six hours later
Method: FIG. 11. Visualizing melanoma cell extravasation in vivo. Single XY plane from confocal image of CFSE-labeled B16F10 cells in Tat-Scr treated mouse lung 6 hr. after i.v. injection of 10^6 tumor cells. Two tumor cells (arrows) have migrated out of vasculature while another one (arrowhead) remains inside the vessel.
FIG. 12. […] Quantification of block by Tat-KLC1c (Mean±S.D) * p<0.01.
C57Bl/6 mice received KLC1c or scrambled peptide 1 hour prior to receiving carboxyfluorescein (CFSE)-labeled B16F10 melanoma cells via tail vein. They were sacrificed six hours later so that data would reflect the effects on extravasation per se rather than survival or growth (Ref. B10; herein incorporated by reference in its entirety). Immediately prior to sacrifice a fluorescent anti-PECAM antibody was injected i.v. to stain vasculature. Lungs were inflated with 4% paraformaldehyde (PFA) and fixed overnight in PFA, then cryopreserved in sucrose. 100 μm thick frozen sections were cut and examined by spinning disc confocal microscopy with images taken every 1 μm of specimen depth. 30% of visualized tumor cells had transmigrated in the mice receiving scrambled peptide, whereas only ˜9% had transmigrated in mice receiving Tat-KLC1c peptide—a 70% reduction (FIGS. 11,12). […] In a separate experiment, age- and sex-matched C57Bl/6 mice syngeneic to the tumor were randomized to receive Tat-Scr or Tat-KLC1c parenterally at a concentration calculated to achieve 0.1 μM in vivo 1 h. before and 18 h. after receiving 1×10^6 syngeneic B16F10 melanoma cells in 100 μl via tail vein. Lung metastases were enumerated 14 days later under a dissecting microscope. The Tat-KLC1c group had over 90% fewer (FIG. 13, p=0.00204). […] Even though Tat-KLC1c blocks about ⅓ (in vitro) to ⅔ (in vivo) of melanoma extravasation events, the number of metastatic colonies that grow out are disproportionately lower.

PMN = experiment: croton oil acute dermatitis of ear skin, PMN transmigration; format: in vivo, mouse; details: i.v. to achieve 0.1 μM in blood, one hour before croton oil; ear skin examined six hours later
Method: FIG. 5. TAT-KLC1c blocks TEM in vivo. Mice received TAT-Scr or TAT-KLC1c i.v. at a concentration to achieve 0.1 μM in blood. One hour later, croton oil was applied to mouse ear skin to induce acute dermatitis. Six hours later mice were sacrificed and ear skin examined in whole mount by confocal microscopy. Representative images are shown. In mice receiving Tat-Scr, a mean of 70% of PMN exited the vessels, while in mice receiving Tat-KLC1c, transmigration was decreased to 12%.

neutrophils = experiment: intravital confocal microscopy of neutrophil transmigration in IL-1β-inflamed cremaster muscle; format: in vivo; details: anesthetized mouse; for neutrophil extravasation (cumulative transmigration): postcapillary venules, response to IL-1β, after injection of peptide
From the text: FIG. 4. TAT-KLC1c blocks TEM in vivo. In the inflamed cremaster muscle of an anesthetized mouse, fluorescent neutrophils were observed by intravital spinning disc confocal microscopy to transmigrate steadily from postcapillary venules in response to IL-1β.

[3] = tested on: A375 human melanoma cells; experiment: Transwell filter migration of tumor cells toward serum-containing medium (A375); format: cell-based; details: 100 nM peptide, 12 hours, 8 μM pore size Transwell
Method: (§3) FIG. 8. […] 1×10^4 A375 human melanoma cells or 1×10^4 B16F10 melanoma cells were resuspended in serum-free medium and placed in the upper chamber of Transwell filters ([…]) and allowed to migrate in response to serum-containing medium in the bottom chamber in the presence of 100 nM Tat-Scr, Tat-KLC1c or no additives. The total number of tumor cells in the bottom well 12 hours later was enumerated. Data are mean±S.D. for four replicates of each sample.

B16F10 melanoma cells [4] = experiment: Transwell filter migration of tumor cells toward serum-containing medium (B16F10); format: cell-based, mouse; details: 100 nM peptide, 12 hours, 8 μM pore size Transwell
Method: as §3

[5] = tested on: A375 human melanoma cells; experiment: tumor cell TEM assay, A375 melanoma cells across EC (HUVEC) monolayers; format: cell-based; details: for melanoma cell TEM in vitro (in words): human melanoma cells across human EC monolayer; for melanoma cell transmigration across endothelial cell monolayers, prostaglandin receptor inhibitors: HUVEC pretreated 1 hour then washed, A375 cells, inhibitor used at 10× its IC50
Method: FIG. 7. Tat-KLC1c peptide blocks tumor cell TEM. A375 human melanoma cells were allowed to transmigrate for 2 hours across EC monolayers pre-incubated (then washed extensively) with Tat-KLC1c or Tat-Scr. The 50% block in TEM is representative of at least 6 independent experiments.
FIG. 10. Platelets modestly increase melanoma cell migration through an LBRC-dependent mechanism. The tumor cell TEM assay was carried out in the presence or absence of human platelets, which were added to the tumor cells at the time of peptide addition and immediately prior to addition to the endothelial cell monolayer. Transmigration proceeded for 2 hours.
FIG. 17. […] HUVEC monolayers were pretreated with 100 nM Tat peptides or the indicated doses of PF-04418948 (EP2 inhibitor) or AAT008 (EP4 antagonist) for 1 hour then washed exten-sively before adding A375 cells. Transmigration proceeded for 2 hours.
FIG. 18. Optimal concentrations of Tat-KLC1c peptide and EP4 antagonist are not additive. Transmigration assays as in FIG. 16 with 100 μM Tat-peptides, 100 nM AAT-008, or both. Mean±S.D. of 6 replicates for each condition. * p<0.0004 vs. Scr; NS vs each other.
as §2

B16F10 melanoma cells [6] = experiment: growth of B16F10 melanoma cells in culture over two weeks; format: cell-based, mouse; details: 100 nM peptide, two-week period
Method: FIG. 9. […] Melanoma cells were plated at a density of 1×10^5/ml on 80 mm plates with 100 nM Tat-Scr or Tat-KLC1c. Cells were trypsinized and counted on the indicated days, diluted and 4×10^6 viable cells re-plated in fresh peptide. Total cells in the culture are shown.

B16F10 melanoma cells [7] = experiment: lung metastatic colony formation after tail vein injection of B16F10 cells; format: in vivo, mouse
Method: Age- and sex-matched C57Bl/6 mice were injected with Tat-Scr (Scr) or Tat-KLC1c (KLC1c) 1 hr before and 18 hr after injection of 10^6 B16F10 melanoma cells via tail vein. 14 days later lungs were inflated with formalin, and metastases counted. (A) Representative gross photos of lungs from mice that received Tat-Scr (top) and Tat-KLC1c (bottom). Arrows point to some of the metastases. (B) Graphical representation of results. Dots are values for individual mice. (TNTC)=too numerous to count. Lines show mean±S.D., p=0.00204 by ANOVA not including the TNTC data.
C57Bl/6 mice received KLC1c or scrambled peptide 1 hour prior to receiving carboxyfluorescein (CFSE)-labeled B16F10 melanoma cells via tail vein. They were sacrificed six hours later so that data would reflect the effects on extravasation per se rather than survival or growth (Ref. B10; herein incorporated by reference in its entirety). Immediately prior to sacrifice a fluorescent anti-PECAM antibody was injected i.v. to stain vasculature. […] In a separate experiment, age- and sex-matched C57Bl/6 mice syngeneic to the tumor were randomized to receive Tat-Scr or Tat-KLC1c parenterally at a concentration calculated to achieve 0.1 μM in vivo 1 h. before and 18 h. after receiving 1×10^6 syngeneic B16F10 melanoma cells in 100 μl via tail vein. […]

Row | Compound | lowest concentration with significant effects on tumor cell transmigration (A375M melanoma cells) [µM] | melanoma / tumor cell transmigration with free radical scavengers and anti-oxidants (in words) (A375M melanoma cells) | inhibition of melanoma cell TEM compared with Tat-KLC1c peptide (A375M melanoma cells) | percentage of cells transmigrated (% TEM) [1] | visualized tumor cells that had transmigrated (B16F10 melanoma cells [2]; lung) [%] | mean PMN exited the vessels (transmigration) (PMN) [%] | neutrophil extravasation (cumulative transmigration) (neutrophils) | tumor cell migration, total number of tumor cells in the bottom well [3] | tumor cell migration, total number of tumor cells in the bottom well (B16F10 melanoma cells [4]) | melanoma cell TEM in vitro (in words) [5] | further results
1 | Cc1c(C)c2c(c(C)c1O)CCC(C)(C(=O)O)O2 (stereo not shown) [Trolox, 6-hydroxy-2,5,7,8-tetramethylchroman-2-carboxylic acid] | 100 | reduces tumor cell transmigration in a dose-dependent manner; also recorded: inhibit melanoma transmigration | as effectively as the optimal concentration of Tat-KLC1c peptide | – | – | – | – | – | – | – | –
2 | Tat-KLC1c: 11-amino acid basic region from HIV Tat protein, glycine tripeptide linker, C-terminal decapeptide of KLC1c (MRKMKLGLVN); SEQ ID NO: 8 (YGRKKRRQRRRGGGMRKMKLGLVN) | – | – | – | significantly decreased TEM | ~9 | 12 | markedly inhibited | no direct effect | no direct effect | significantly blocks | melanoma extravasation (in words) (B16F10 melanoma cells [2]; FIG. 12 quantification): blocks melanoma extravasation; reduction of transmigrated tumor cells (B16F10 melanoma cells [2]; Tat-KLC1c vs scrambled peptide, six hours, lung): 70%; melanoma extravasation events blocked (in vivo) (B16F10 melanoma cells [2]; in vivo): ⅔; time after injection until cumulative transmigration began to plateau (neutrophils; IL-1β-inflamed cremaster): ≤ 10 min; block in TEM ([5]; EC monolayers pre-incubated with peptide then washed, 2 hours, vs Tat-Scr, representative of at least 6 experiments): 50%; reduction of tumor cell TEM ([5]; FIG. 10 experiment, without platelets, 2 hours, vs. scr): 33%; additional TEM in the presence of platelets ([5]; human platelets added to tumor cells, 2 hours): blocked; also recorded: down to the same level; melanoma extravasation events blocked (in vitro) ([5]; in vitro): about ⅓; tumor cell viability or growth (total cells in the culture) (B16F10 melanoma cells [6]): no effect; also recorded: does not affect growth; fewer lung metastases than Tat-Scr group (B16F10 melanoma cells [7]; 0.1 μM in vivo, 1 h before and 18 h after 1×10^6 B16F10 cells via tail vein, 14 days later): over 90%; metastatic colony formation (in words) (B16F10 melanoma cells [7]; C57Bl/6 mice, B16F10, 14 days): significantly blocked the establishment of metastatic colonies; also recorded: prevents metastatic colony formation
3 | C[C@H](NC(=O)c1cc(Cl)cnc1Oc1cccc(F)c1)c1ccc(C(=O)O)cc1 [AAT-008, reference compound] | – | – | – | – | – | – | – | – | – | – | melanoma cell transmigration across endothelial cell monolayers, prostaglandin receptor inhibitors ([5]; 2 hours): block melanoma cell transmigration; melanoma cell transmigration across endothelial cell monolayers, prostaglandin receptor inhibitors ([5]; 2 hours, listed as AAT008): blocks melanoma transmigration; block to melanoma cell transmigration compared with Tat-KLC1c ([5]; vs Tat-KLC1c at its optimal concentration): as effective as using Tat-KLC1c at its optimal concentration
4 | Tat-Scr: negative control peptide contains the same ten amino acids in a random order (scrambled, Scr); SEQ ID NO: 9 (YGRKKRRQRRRGGGGKLNKMVMLR) [reference compound] | – | – | – | not | 30 | 70 | no effect | no significant differences | no significant differences | no effect | –
5 | CC(=O)N[C@@H](CS)C(=O)O [N-acetylcysteine] | 100 | reduces tumor cell transmigration in a dose-dependent manner; also recorded: inhibit melanoma transmigration | as effectively as the optimal concentration of Tat-KLC1c peptide | – | – | – | – | – | – | – | –
